Data on 27 compounds can be found in patent US20070027150A1 (priority 2005, published 2007).

Molecules are shown by their SMILES. Bounds are passed on as bounds.

In one assay the target is His-tagged N-terminal ATP binding domain (amino acid residues 9-236) of HSP90α (Homo sapiens, UniProt P07900). Description: HSP90 inhibitor binding potency: TRF competition binding assay. The conditions noted are these: Table I; read-out: Hsp90 IC50 Range. The method in brief:
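Competition against biotinylated radicicol for binding to the His-tagged 9-236 ATP domain of HSP90α: 2 h, room temperature, HEPES/MgCl2/KCl/BSA buffer. Streptavidin capture, then europium-labeled anti-His antibody and enhancement solution; europium counts give IC50.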
On to `Cc1nc(N)nc2c1C(=O)CC(c1ccccc1C1CCCCC1)C2` (stereo not drawn) [Compound 171, 2-amino-7-(2-cyclohexylphenyl)-4-methyl-7,8-dihydroquinazolin-5(6H)-one], for which the IC50 (in general, the midpoint of a concentration-inhibition curve) is less than 1000 nM.
The same measure, in the same setting: in the case of `CCOc1cccc(-c2cccnc2F)c1C1CC(=O)c2c(C)nc(N)nc2C1` (stereo not drawn) [Compound 151, 2-amino-7-[2-ethoxy-6-(2-fluoro-pyridin-3-yl)-phenyl]-4-methyl-7,8-dihydro-6H-quinazolin-5-one] it was less than 1000 nM; in that of `Cc1ccccc1-c1ccccc1C1CC(=O)c2c(C)nc(N)nc2C1` (stereo not drawn) [Compound 49, 2-amino-4-methyl-7-(2′-methyl-1,1′-biphenyl-2-yl)-7,8-dihydroquinazolin-5(6H)-one], less than 1000 nM; in that of `Cc1nc(N)nc2c1C(=O)CC(c1c(OCCN3CCN(C)CC3)cccc1-c1cccnc1F)C2` (stereo not drawn) [Compound 158, 2-amino-7-{2-(2-fluoro-pyridin-3-yl)-6-[2-(4-methyl-piperazin-1-yl)-ethoxy]-phenyl}-4-methyl-7,8-dihydro-6H-quinazolin-5-one], less than 1000 nM.
As to `Cc1nc(N)nc2c1C(=O)CC(c1ccc(F)cc1Oc1ccccc1)C2` (stereo not drawn) [Compound 140, 2-amino-7-(4-fluoro-2-phenoxy-phenyl)-4-methyl-7,8-dihydro-6H-quinazolin-5-one], the IC50 was less than 1000 nM.
In the case of `Cc1nc(N)nc2c1C(=O)CC(c1ccccc1-c1ccccc1CO)C2` (stereo not drawn) [Compound 67, 2-amino-7-[2′-(hydroxymethyl)-1,1′-biphenyl-2-yl]-4-methyl-7,8-dihydroquinazolin-5(6H)-one], the IC50 is less than 1000 nM.
On the same count and under the same terms, with `Cc1nc(N)nc2c1C(=O)CC(c1ccccc1Oc1ncccn1)C2` (stereo not drawn) [Compound 144, 2-amino-4-methyl-7-[2-(pyrimidin-2-yloxy)phenyl]-7,8-dihydroquinazolin-5(6H)-one] the figure was 1000 to 10000 nM.
Still for that read-out and setting: with `Cc1nc(N)nc2c1C(=O)CC(c1ccccc1-c1ccccc1)C2` (stereo not drawn) [Compound 41, 2-amino-7-(1,1′-biphenyl-2-yl)-4-methyl-7,8-dihydroquinazolin-5(6H)-one] the figure was less than 1000 nM; with `CCOc1cccc(-c2ccccc2C2CC(=O)c3c(C)nc(N)nc3C2)n1` (stereo not drawn) [Compound 94, 2-amino-7-[2-(6-ethoxy-pyridin-2-yl)-phenyl]-4-methyl-7,8-dihydro-6H-quinazolin-5-one], 1000 to 10000 nM; with `Cc1nc(N)nc2c1C(=O)CC(c1ccccc1-c1cccnc1)C2` (stereo not drawn) [Compound 26, 2-amino-4-methyl-7-(2-pyridin-3-ylphenyl)-7,8-dihydroquinazolin-5(6H)-one], less than 1000 nM.
Still for that read-out and setting: with `Cc1ccncc1-c1ccccc1C1CC(=O)c2c(C)nc(N)nc2C1` (stereo not drawn) [Compound 121, 2-amino-4-methyl-7-[2-(4-methylpyridin-3-yl)phenyl]-7,8-dihydroquinazolin-5(6H)-one] the figure was greater than 10000 nM; with `COc1ccc(-c2cccnc2F)c(C2CC(=O)c3c(C)nc(N)nc3C2)c1` (stereo not drawn) [Compound 98, 2-amino-7-[2-(2-fluoropyridin-3-yl)-5-methoxyphenyl]-4-methyl-7,8-dihydroquinazolin-5(6H)-one], less than 1000 nM.
On to `Cc1nc(N)nc2c1C(=O)CC(c1ccccc1C1=CCCCC1)C2` (stereo not drawn) [Compound 44, 2-amino-7-(2-cyclohex-1-en-1-ylphenyl)-4-methyl-7,8-dihydroquinazolin-5(6H)-one], for which the IC50 is less than 1000 nM.

Still in this assay, the particulars now being: Table II; read-out: Hsp90 IC50 Range.
For the compound `COc1nccnc1-c1cc(F)ccc1C1CC(=O)c2c(C)nc(N)nc2C1` (stereo not drawn) [Compound 281, 2-amino-7-[4-fluoro-2-(3-methoxy-pyrazin-2-yl)-phenyl]-4-methyl-7,8-dihydro-6H-quinazolin-5-one], the IC50 was less than 1000 nM.
Still for that read-out and setting: in the case of `COc1nc(-c2cc(F)ccc2C2CC(=O)c3c(C)nc(N)nc3C2)cnc1N` (stereo not drawn) [Compound 232, 2-amino-7-[2-(5-amino-6-methoxy-pyrazin-2-yl)-4-fluoro-phenyl]-4-methyl-7,8-dihydro-6H-quinazolin-5-one] it was less than 1000 nM; in that of `COc1ccc(C(F)(F)F)cc1-n1ccnc1C1CC(=O)c2c(C)nc(N)nc2C1` (stereo not drawn) [Compound 199, 2-amino-7-[1-(2-methoxy-5-trifluoromethyl-phenyl)-1H-imidazol-2-yl]-4-methyl-7,8-dihydro-6H-quinazolin-5-one], 1000 to 10000 nM; in that of `COc1ccc(F)c(-c2cc(F)ccc2[C@H]2CC(=O)c3c(C)nc(N)nc3C2)n1` [Compound 314, (R)-2-amino-7-[4-fluoro-2-(3-fluoro-6-methoxy-pyridin-2-yl)-phenyl]-4-methyl-7,8-dihydro-6H-quinazolin-5-one], 1000 to 10000 nM.
The same measure, in the same setting: in the case of `CCc1cccc(-n2ccnc2C2CC(=O)c3c(C)nc(N)nc3C2)n1` (stereo not drawn) [Compound 201, 2-amino-7-[1-(6-ethyl-pyridin-2-yl)-1H-imidazol-2-yl]-4-methyl-7,8-dihydro-6H-quinazolin-5-one] it was 1000 to 10000 nM; in that of `COc1cnc(-c2cc(F)ccc2[C@@H]2CC(=O)c3c(C)nc(N)nc3C2)nc1OC` [Compound 288, (S)-2-amino-7-[2-(4,5-dimethoxy-pyrimidin-2-yl)-4-fluoro-phenyl]-4-methyl-7,8-dihydro-6H-quinazolin-5-one], less than 1000 nM; in that of `Cc1nc(N)nc2c1C(=O)CC(c1ncccc1OC1CCCC1)C2` (stereo not drawn) [Compound 178, 2-amino-7-(3-cyclopentyloxy-pyridin-2-yl)-4-methyl-7,8-dihydro-6H-quinazolin-5-one], less than 1000 nM.
Same read-out and setting: with `Cc1nc(N)nc2c1C(=O)CC(c1ccc(F)cc1-c1cncc(Cl)n1)C2` (stereo not drawn) [Compound 219, 2-amino-7-[2-(6-chloro-pyrazin-2-yl)-4-fluoro-phenyl]-4-methyl-7,8-dihydro-6H-quinazolin-5-one] the figure was less than 1000 nM; with `Cc1nc(N)nc2c1C(=O)CC(c1ccc(F)cc1-c1cccc3ccccc13)C2` (stereo not drawn) [Compound 212, 2-amino-7-(4-fluoro-2-naphthalen-1-yl-phenyl)-4-methyl-7,8-dihydro-6H-quinazolin-5-one], less than 1000 nM.
Turning to `Cc1nc(N)nc2c1C(=O)CC(c1ccccc1S(=O)(=O)N(C)C(C)C)C2` (stereo not drawn) [Compound 185, 2-(2-amino-4-methyl-5-oxo-5,6,7,8-tetrahydro-quinazolin-7-yl)-N-isopropyl-N-methyl-benzenesulfonamide], the IC50 fell in the range of 1000 to 10000 nM.
Same read-out and setting: in the case of `COc1ncc(-c2cc(F)ccc2C2CC(=O)c3c(C)nc(N)nc3C2)nc1OC` (stereo not drawn) [Compound 322, 2-amino-7-[2-(5,6-dimethoxy-pyrazin-2-yl)-4-fluoro-phenyl]-4-methyl-7,8-dihydro-6H-quinazolin-5-one] it was less than 1000 nM; in that of `COc1cccc(-c2scnc2C2CC(=O)c3c(C)nc(N)nc3C2)n1` (stereo not drawn) [Compound 291, 2-amino-7-[5-(6-methoxy-pyridin-2-yl)-thiazol-4-yl]-4-methyl-7,8-dihydro-6H-quinazolin-5-one], less than 1000 nM.
Same read-out and setting: with `COc1cccc(-c2ccccc2C2CC(=O)c3c(C)nc(N)nc3C2)c1F` (stereo not drawn) [Compound 235, 2-amino-7-(2′-fluoro-3′-methoxy-biphenyl-2-yl)-4-methyl-7,8-dihydro-6H-quinazolin-5-one] the figure was 1000 to 10000 nM; with `COc1ccccc1-c1scnc1C1CC(=O)c2c(C)nc(N)nc2C1` (stereo not drawn) [Compound 301, 2-amino-7-[5-(2-methoxy-phenyl)-thiazol-4-yl]-4-methyl-7,8-dihydro-6H-quinazolin-5-one], less than 1000 nM.
